For assay [1], the target named is T1, Acetylcholinesterase (Bos taurus, UniProt P23795).
T1 sequence (P23795 whole entry): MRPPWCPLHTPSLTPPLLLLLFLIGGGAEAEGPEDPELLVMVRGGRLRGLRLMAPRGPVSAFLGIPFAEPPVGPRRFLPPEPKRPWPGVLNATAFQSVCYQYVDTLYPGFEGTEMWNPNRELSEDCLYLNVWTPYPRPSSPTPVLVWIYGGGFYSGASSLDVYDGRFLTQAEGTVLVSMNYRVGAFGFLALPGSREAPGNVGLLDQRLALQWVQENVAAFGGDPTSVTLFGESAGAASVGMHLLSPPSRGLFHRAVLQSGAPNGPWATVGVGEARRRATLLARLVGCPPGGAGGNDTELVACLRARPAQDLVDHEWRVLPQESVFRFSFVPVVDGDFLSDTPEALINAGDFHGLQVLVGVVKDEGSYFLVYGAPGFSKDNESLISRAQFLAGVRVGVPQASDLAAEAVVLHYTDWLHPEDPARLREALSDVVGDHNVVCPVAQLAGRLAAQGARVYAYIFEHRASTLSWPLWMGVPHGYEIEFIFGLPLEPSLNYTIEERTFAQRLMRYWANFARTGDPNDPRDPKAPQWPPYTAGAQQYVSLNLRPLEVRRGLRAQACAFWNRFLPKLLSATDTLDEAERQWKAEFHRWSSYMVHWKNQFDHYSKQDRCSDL
Description: Inhibition of bovine erythrocyte AChE

Assay [2] deals with T1, Acetylcholinesterase. The source holds these as a separate data set.
Description: Inhibition of bovine erythrocyte AChE after 45 mins
In the next assay the target is Cholinesterase (Homo sapiens, UniProt P06276).
Assay [3] has as its target Acetylcholinesterase (Homo sapiens, UniProt P22303).
Description: Inhibition of human erythrocyte AChE

This is an account of results in ChEMBL document CHEMBL1137340, “Binding of 13-amidohuprines to acetylcholinesterase: exploring the ligand-induced conformational change of the gly117-gly118 peptide bond in the oxyanion hole” (J Med Chem, 2006).

Cholinesterase, sequence (P06276 whole entry): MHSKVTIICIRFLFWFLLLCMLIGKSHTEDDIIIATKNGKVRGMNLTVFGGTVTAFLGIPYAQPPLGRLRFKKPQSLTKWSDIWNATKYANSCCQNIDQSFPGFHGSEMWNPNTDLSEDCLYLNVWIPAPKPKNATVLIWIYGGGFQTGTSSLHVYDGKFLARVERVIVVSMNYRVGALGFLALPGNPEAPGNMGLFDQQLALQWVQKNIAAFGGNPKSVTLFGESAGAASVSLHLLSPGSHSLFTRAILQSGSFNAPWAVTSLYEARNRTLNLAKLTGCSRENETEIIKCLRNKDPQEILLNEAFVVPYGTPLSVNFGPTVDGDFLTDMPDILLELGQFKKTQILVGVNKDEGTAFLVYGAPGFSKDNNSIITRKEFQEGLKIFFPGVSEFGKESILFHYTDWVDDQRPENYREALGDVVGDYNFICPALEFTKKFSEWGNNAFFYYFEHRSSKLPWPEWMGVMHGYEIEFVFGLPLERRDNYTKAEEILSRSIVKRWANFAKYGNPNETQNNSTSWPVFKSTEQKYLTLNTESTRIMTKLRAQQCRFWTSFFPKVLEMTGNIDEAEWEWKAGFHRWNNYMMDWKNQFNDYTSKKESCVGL
Acetylcholinesterase (Homo sapiens, UniProt P22303), sequence (P22303 whole entry): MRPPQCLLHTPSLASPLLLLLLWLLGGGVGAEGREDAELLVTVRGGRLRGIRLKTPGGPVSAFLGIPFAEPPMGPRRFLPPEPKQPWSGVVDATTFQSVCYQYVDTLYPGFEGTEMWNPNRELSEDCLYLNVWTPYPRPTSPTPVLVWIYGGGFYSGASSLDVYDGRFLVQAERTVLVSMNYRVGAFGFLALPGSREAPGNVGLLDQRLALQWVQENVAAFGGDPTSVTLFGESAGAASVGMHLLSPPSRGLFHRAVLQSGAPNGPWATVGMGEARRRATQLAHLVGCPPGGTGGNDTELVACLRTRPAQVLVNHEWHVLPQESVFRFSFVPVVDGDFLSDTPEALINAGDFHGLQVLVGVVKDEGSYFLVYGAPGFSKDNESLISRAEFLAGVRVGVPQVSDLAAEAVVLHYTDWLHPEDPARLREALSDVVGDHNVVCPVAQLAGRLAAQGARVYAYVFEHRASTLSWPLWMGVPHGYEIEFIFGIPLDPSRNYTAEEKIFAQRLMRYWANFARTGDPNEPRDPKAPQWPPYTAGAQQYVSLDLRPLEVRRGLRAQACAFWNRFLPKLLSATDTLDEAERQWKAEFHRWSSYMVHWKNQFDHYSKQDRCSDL

Take `CCC1=C[C@@H]2Cc3nc4cc(C)ccc4c(N)c3[C@H](C1)C2`: half-maximal inhibition on Acetylcholinesterase [1] (IC50) required 4.5 nM.

With `CC(=O)NC1C2C=C(C)CC1c1c(nc3cc(Cl)ccc3c1N)C2` (racemic; form 2), the values for the IC50 at Acetylcholinesterase [2] and against Cholinesterase were 1330 nM and greater than 10000 nM, respectively.

For the compound `CCC1=CC2Cc3nc4cc(Cl)ccc4c(N)c3C(C1)C2` (racemic), on Acetylcholinesterase [1], the IC50 worked out at 2.77 nM.

For `CC1=C[C@@H]2Cc3nc4cc(Cl)ccc4c(N)c3[C@H](C1)C2`, half-maximal inhibition against Acetylcholinesterase [1] (IC50) was put at 1.15 nM.

As to `CC12CC3Cc4nc5cc(Cl)ccc5c(N)c4C(C1)C3N2` (racemic), the IC50 against Acetylcholinesterase [1] is 5680 nM; against Acetylcholinesterase [2] it was 4380 nM; against Cholinesterase it was greater than 10000 nM.

Turning to `CC12CC3Cc4nc5cc(Cl)ccc5c(N)c4C(C1)C3N2S(C)(=O)=O` (racemic), the 50% inhibitory concentration (IC50) against Acetylcholinesterase [1] was determined as 1320 nM; on Acetylcholinesterase [2], 304 nM; at Cholinesterase, 9220 nM.

`CC1=CC2Cc3nc4cc(Cl)ccc4c(N)c3C(C1)C2NC=O` (racemic; form 1): the IC50 is 98 nM against Acetylcholinesterase [3] and greater than 10000 nM at Cholinesterase.

Regarding `CC1=CC2Cc3nc4cc(Cl)ccc4c(N)c3C(C1)C2N` (racemic; form 1), the half-maximal inhibitory concentration (IC50) turned out to be 225 nM against Acetylcholinesterase [3], 389 nM at Acetylcholinesterase [1], 447 nM at Acetylcholinesterase [2] and 6480 nM against Cholinesterase.

`CC1=CC2Cc3nc4cc(Cl)ccc4c(N)c3C(C1)C2NC=O` (racemic; form 2): half-maximal inhibition on Cholinesterase (IC50) required 3980 nM.

For the compound `CC(=O)NC1C2C=C(C)CC1c1c(nc3cc(Cl)ccc3c1N)C2` (racemic; form 1), the half-maximal inhibitory concentration (IC50) is 1690 nM against Acetylcholinesterase [1], 1370 nM against Acetylcholinesterase [2] and 8490 nM on Cholinesterase.

Take `CCC1=C[C@@H]2Cc3nc4cc(Cl)ccc4c(N)c3[C@H](C1)C2`: at Acetylcholinesterase [1], 1.3 nM corresponded to half-maximal inhibition (IC50). This lies in the single-digit nanomolar range.

As for `CC1=CC2Cc3nc4cc(Cl)ccc4c(N)c3C(C1)C2N` (racemic; form 2), the IC50 at Acetylcholinesterase [1] was found to be 482 nM; at Acetylcholinesterase [2], 478 nM; at Cholinesterase, 601 nM.

Turning to `CC1=CC2Cc3nc4cc(Cl)ccc4c(N)c3C(C1)C2NS(C)(=O)=O` (racemic; form 2), the figures for the IC50 at Acetylcholinesterase [1] and at Acetylcholinesterase [2] were 1370 nM and 2450 nM, respectively.

Compound `CCC1=C[C@@H]2Cc3nc4ccccc4c(N)c3[C@H](C1)C2` had an IC50 against Acetylcholinesterase [1] of 27.4 nM.

For the compound `CC1=CC2Cc3nc4cc(Cl)ccc4c(N)c3C(C1)C2NS(C)(=O)=O` (racemic; form 1), the 50% inhibitory concentration (IC50) is 40.5 nM against Acetylcholinesterase [3], 118 nM on Acetylcholinesterase [1], 39 nM against Acetylcholinesterase [2] and greater than 10000 nM against Cholinesterase.
